Experiments:
[1] = tested on: Pseudomonas aeruginosa; test: microtitre plate test on sterile agar, growth inhibition of gram-negative bacteria; assay type: cell-based; conditions: gramnegativen Bakterien (z.B. Pseudomonas aeruginosa); Inkubationszeit 3 Tage, Temperatur 37°C
Procedure: (§1) Sowohl gegenüber gramnegativen Bakterien (z.B. Pseudomonas aeruginosa) als auch grampositiven Bakterien (z.B. Staphylococcus aureus) zeigen die beispielhaft genannten Borate eine hervorragende wachstumshemmende Wirkung, was experimentell durch einen sogenannten Mikrotiterplattentest auf sterilem Agar (Inkubationszeit 3 Tage, Temperatur 37°C) dokumentiert werden konnte.

[2] = tested on: Staphylococcus aureus; test: microtitre plate test on sterile agar, growth inhibition of gram-positive bacteria; assay type: cell-based; conditions: grampositiven Bakterien (z.B. Staphylococcus aureus); Inkubationszeit 3 Tage, Temperatur 37°C
Procedure: as §1

| SMILES | wachstumshemmende Wirkung [1] | wachstumshemmende Wirkung [2] |
| --- | --- | --- |
| CC/C=C\CCOB(OCC/C=C\CC)OCC/C=C\CC [tris-(cis)-3-Hexenylborat] | antimikrobiellen Eigenschaften | antimikrobiellen Eigenschaften |
| CC(C)=CCC/C(C)=C/COB(OC/C=C(\C)CCC=C(C)C)OC/C=C(\C)CCC=C(C)C [tris-Geranylborat] | antimikrobiellen Eigenschaften | antimikrobiellen Eigenschaften |
| CC(CC=O)CCCC(C)(C)OB(OC(C)(C)CCCC(C)CC=O)OC(C)(C)CCCC(C)CC=O (centres unmarked) [tris-Hydroxycitronellalborat] | antimikrobiellen Eigenschaften | antimikrobiellen Eigenschaften |
| C=CC(C)(CCC=C(C)C)OB(OC(C)(C=C)CCC=C(C)C)OC(C)(C=C)CCC=C(C)C (centres unmarked) [tris-Linalylborat] | antimikrobiellen Eigenschaften | antimikrobiellen Eigenschaften |
| CC(C)=CCC/C(C)=C\COB(OC/C=C(/C)CCC=C(C)C)OC/C=C(/C)CCC=C(C)C [tris-Nerylborat] | antimikrobiellen Eigenschaften | antimikrobiellen Eigenschaften |
| c1ccc(CCOB(OCCc2ccccc2)OCCc2ccccc2)cc1 [tris-Phenylethylborat] | antimikrobiellen Eigenschaften | antimikrobiellen Eigenschaften |
| C=CCCCCCCCCCOB(OCCCCCCCCCC=C)OCCCCCCCCCC=C [tris-Undecenylborat] | antimikrobiellen Eigenschaften | antimikrobiellen Eigenschaften |

Source: patent EP0742220A2, “Esters of boric acid and their use as perfume” (HAARMANN & REIMER GMBH, priority 1995, dated 1996)
